For this assay, the target named is T1, Protein cereblon [318-426] (UniProt Q96SW2).
T1 construct: 318-426
Description: Measurement of Molecular Interactions Using Surface Plasmon Resonance (SPR). The protocol: The instrument used was the Biacore T200 (manufactured by Cytiva). […] The sensor chip used was Sensor Chip SA (manufactured by Cytiva). The CRBN truncate was immobilized using the affinity between SA (streptavidin) on the sensor chip and the Avi-tag. The running buffer was a mixture of 10 mM HEPES pH 7.5, 150 mM NaCl, 1 mM TCEP, 0.005% Tween 20, and 2% DMSO. […] Contact time and dissociation time were set at 60 seconds and 120 seconds, respectively.

The Kd is the constant that tells how readily two partners part at equilibrium. High values mean lower affinity, low ones higher affinity.

T1 sequence (Q96SW2 318-426): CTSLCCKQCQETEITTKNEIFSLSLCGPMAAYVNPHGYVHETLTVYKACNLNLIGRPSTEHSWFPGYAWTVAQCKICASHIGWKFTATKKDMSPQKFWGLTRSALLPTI

In the case of `CC(C)(C)OC(=O)C1=CC(C2CCCC(=O)NC2=O)CC=C1` (stereo unspecified) [US20250388593, Example 60], the equilibrium dissociation constant (Kd) result is “in the range around 75 µM”.
Regarding `O=C1CCCC(C2=CC([N+](=O)[O-])CC=C2)C(=O)N1` (stereo unspecified) [US20250388593, Example 62], the equilibrium dissociation constant (Kd) was greater than 100 µM.
For `O=C1CCCC(c2cc([N+](=O)[O-])ccc2Cl)C(=O)N1` (stereo unspecified) [US20250388593, Example 63], the dissociation constant (Kd) was greater than 100 µM.
In turn, `COC(=O)C(CCCCNC(=O)OCc1ccccc1)Oc1ccccc1[N+](=O)[O-]` (stereo unspecified) [US20250388593, Example 66-1] gave a Kd greater than 100 µM.
Consider `CC(C)(C)OC(=O)N1CCN(C(=O)CN2CCC3(CCCC(=O)NC3=O)CC2=O)CC1` (stereo unspecified) [US20250388593, Example 98], for which the Kd is greater than 100 µM.
The figure for `CC(C)(C)OC(=O)CN1CCC2(CCCC(=O)NC2=O)CC1=O` (stereo unspecified) [US20250388593, Example 107] is greater than 100 µM; for `CC(=O)Nc1ccc2nc(N3CCCC(=O)NC3=O)sc2c1` [US20250388593, Example 119] it is less than 50 µM; for `CC(C)(C)OC(=O)CCc1nn(C2CCCC(=O)NC2=O)c2ccccc12` (stereo unspecified) [US20250388593, Example 137] it is less than 50 µM.
`Cn1c(=O)n(C2CCCC(=O)NC2=O)c2cccc(CCCCCCCC(=O)OC(C)(C)C)c21` (stereo unspecified) [US20250388593, Example 207] came in with an equilibrium dissociation constant (Kd) greater than 100 µM.
To `Cn1c(=O)n(C2CCCC(=O)NC2=O)c2cccc(CCC(=O)OC(C)(C)C)c21` (stereo unspecified) [US20250388593, Example 213] belongs less than 50 µM; to `Cn1c(=O)n(C2CCCC(=O)NC2=O)c2ccc(C#CCCCCCC(=O)OC(C)(C)C)cc21` (stereo unspecified) [US20250388593, Example 215], greater than 100 µM.
The figure for `Cn1c(=O)n(C2CCCC(=O)NC2=O)c2ccc(CCCCCCCC(=O)OC(C)(C)C)cc21` (stereo unspecified) [US20250388593, Example 216] is greater than 100 µM; for `Cn1c(=O)n(C2CCCC(=O)NC2=O)c2ccc(CCCCC(=O)OC(C)(C)C)cc21` (stereo unspecified) [US20250388593, Example 217] it is less than 50 µM; for `O=C1CCCC(N2C(=O)OCC3=C2C=CC([N+](=O)[O-])C3)C(=O)N1` (stereo unspecified) [US20250388593, Example 274] it is greater than 100 µM.
To `CC(C)(C)OC(=O)N1CCC(c2ccc(OC3CCCCNC3=O)cc2)CC1` (stereo unspecified) [US20250388593, Example 276] belongs greater than 100 µM; to `CN(C1CCCC(=O)NC1=O)S(=O)(=O)c1ccc(CCCCC(=O)OC(C)(C)C)cc1` (stereo unspecified) [US20250388593, Example 279], greater than 100 µM; to `Cn1nc(N2CC=CC(=O)NC2=O)c2ccc(C3CCN(C(=O)OC(C)(C)C)CC3)cc21` [US20250388593, Example 282], greater than 100 µM.
In turn, `CC(C)(C)OC(=O)CCCCCNc1cccc(C2CCCC(=O)NC2=O)c1` (stereo unspecified) [US20250388593, Example 298] gave an equilibrium dissociation constant (Kd) greater than 100 µM.
`CC(C)(C)OC(=O)CCCCCNc1ccc(N2CCC3(CCCC(=O)NC3=O)CC2=O)cc1` (stereo unspecified) [US20250388593, Example 301] registered a Kd greater than 100 µM.
In turn, `CC(C)(C)OC(=O)CCCCCNc1ccc(N2CCC(N3CCCC(=O)NC3=O)C2=O)cc1` (stereo unspecified) [US20250388593, Example 302] had a Kd greater than 100 µM.
As for `CC(C)(C)OC(=O)NCCCCCCCNc1ccc(N2CCC3(CCCC(=O)NC3=O)CC2=O)cc1` (stereo unspecified) [US20250388593, Example 304], the Kd is greater than 100 µM.

The values are drawn from BindingDB's records for patent US20250388593 (Mitsubishi Tanabe Pharma, 2025).
